# Data reported in patent US20070274928A1, “Novel Cyclic Oxygenated Compounds Having Cooling, Fragrance, and Flavor Properties, and Uses Thereof” (priority 2003, published 2007).
# Entries after “also recorded” stand apart in the source; their conditions may differ.
# Tested on: not listed separately
# Assay: Organoleptic evaluation of cooling sensory effect of purified compounds
# Format: in vivo, human
# Details: pure / purified compound
row,Compound,cooling sensory effect
1,CC(C)=CC1C(=O)C=C(C)C1(C)C (stereo not drawn) [(10)],completely devoid of a cooling sensory effect
2,CC1CCC(C(C)CO)C(=O)C1 (stereo not drawn) [(52)],potent cooling properties
3,CC1(C)CC2C(=O)CC(C)(O1)C2(C)C (stereo not drawn) [(147)],no significant cooling sensory effect
4,CC1=C[C@]2(C)OC(=O)CC2C1(C)C (stereo partly drawn) [compound (6)],lacks the cooling sensory effect
5,CC1=CC2(O)OC(C)(C)CC2C1(C)C (stereo not drawn) [compound (7)],powerful cooling effect; also recorded: very powerful cooling sensory effect
6,CC1=CC(=O)C(CC(C)(C)O)C1(C)C (stereo not drawn) [compound (8)],relatively weak cooling effect
7,CC1=CC2(C)OC(C)(C)CC2C1(C)C (stereo not drawn) [compound (11)],devoid of cooling sensory properties
8,CC1CC2(O)OC(C)(C)CC2C1(C)C (stereo not drawn) [compound (15)],moderate to strong cooling sensory effect
9,CC1CC(=O)C(CC(C)(C)O)C1(C)C (stereo not drawn) [compound (16)],weak cooling sensory effect

# Tested on: mouth
# Assay: Taste evaluation of aqueous solutions by mouth rinse (cooling sensory effect)
# Format: in vivo, human
# Details: 5 ppm solution in purified water, 10 ml rinsed in mouth for 10 sec
# Experimental: A 5 ppm solution of 98% pure ketone (10) in purified water was prepared. 10 ml of the solution was tasted by rinsing it in the mouth for 10 sec.
# A series of solutions of a mixture of compounds (7) and (8) (approximately 60:40 ratio) were prepared in purified water for subsequent evaluation of cooling sensory effects and taste properties at different concentrations. The solutions were tasted by taking 10 ml of each sample in the mouth, rinsing the mouth for 30 seconds, and discarding the solution by spitting. The cooling sensory effects were recorded as extreme (5), strong (4), moderate (3), weak (2), or none (1), and the ranks were noted over a period of time of 4 hours. Only one sample was tasted per day. All samples were kept in a refrigerator until the taste evaluation and were brought to room temperature before tasting.
row,Compound,cooling sensory effect
1,CC(C)=CC1C(=O)C=C(C)C1(C)C (stereo not drawn) [(10)],no discernible cooling sensory effect

# Tested on: tongue
# Assay: Application of 5% solution to the tongue
# Format: in vivo, human
# Details: 0.1 ml of a 5% solution applied to the tongue
# Experimental: 3.66 grams of compound (5), 10 ml of water, 5 ml of ethanol, and 1.70 g of sodium bicarbonate were stirred together at room temperature until evolution of carbon dioxide ceased (approximately 30 min). The whole was evaporated under reduced pressure at 85° C. until a constant weight was reached. The resulting transparent solid (4.4 g) was sodium ketocampholenate monohydrate.
row,Compound,duration of tingling-tangy sensation
1,sodium ketocampholenate monohydrate,about 10 min

# Tested on: nasal cavity
# Assay: Olfactory evaluation of neat sample, cooling sensory effect on smelling
# Format: in vivo, human
# Details: not given
# Experimental: 10 ml of 20% NaOH in water were added to the 1 ml of ethanolic solution of 120 mg of the oil resulting from the Grignard reaction, and the whole was stirred at room temperature for 1 hour.
# An analytically pure sample of a lactone having formula (129) was obtained by subjecting 30 mg of the fraction 2A sample to column chromatography on silica gel using hexane:ethyl acetate 8:1 as an eluent.
row,Compound,cooling sensory effect upon smelling the sample
1,CC1CC2(C)OC(=O)CC2C1(C)C (stereo not drawn) [(129)],did not exhibit any significant ability to impart the cooling sensation
